Molecular target: T1, human neutrophil elastase (HNE) (Homo sapiens, UniProt P08246)
T1 construct: purchased Sigma E8140
T1 sequence (P08246 30-247 limits assumed): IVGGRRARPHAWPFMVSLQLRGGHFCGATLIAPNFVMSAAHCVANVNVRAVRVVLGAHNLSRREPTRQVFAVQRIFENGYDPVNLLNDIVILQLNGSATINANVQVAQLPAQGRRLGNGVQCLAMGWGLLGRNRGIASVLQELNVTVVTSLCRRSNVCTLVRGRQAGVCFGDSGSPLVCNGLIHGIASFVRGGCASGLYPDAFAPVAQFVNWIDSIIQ
Assay: HNE enzyme assay
Assay type: biochemical
Details: human leukocyte elastase 0.00072 U/mL; substrate MeOSuc-Ala-Ala-Pro-Val-AMC 100 μM; 25° C., 30 minutes; at least two separate experiments; read-out: HNE inhibition
Procedure: Compounds of this invention were tested for potency in a human neutrophil elastase (HNE) enzyme activity assay. HNE Enzyme Assay Assays were performed in 96-well plates in a total assay volume of 100 μL. The final concentration of elastase enzyme (human leukocyte elastase, Sigma E8140) was 0.00072 U/mL. The peptide substrate (MeOSuc-[…], Calbiochem #324740) was used at a final concentration of 100 μM. The final concentration of DMSO was 1% in the assay buffer (0.05M Tris.HCl, 0.1M NaCl, 0.1M CaCl2, 0.0005% brij-35, pH 7.5). The enzymatic reaction was started by addition of the enzyme and incubated at 25° C. for 30 minutes. After incubation, the reaction was stopped by addition of soybean trypsin inhibitor (Sigma T9003) at a final concentration of 50 μg/well. Fluorescence was measured using a Molecular Devices fluorescence plate reader using 380 nm excitation and 460 nm emission wavelengths. A dose response to each compound was performed and the effect of compound in each experiment was expressed as a percentage inhibition of the control enzyme fluorescence. Dose response curves were plotted and compound potency (IC50) was determined. Compounds were tested in at least two separate experiments.

| SMILES | IC50 [nM] |
| --- | --- |
| Cc1c(-c2ccnn2-c2ccc(C#N)cc2CC[N+](C)(C)C)n(C(=O)NC(C)C)c(=O)n1-c1cccc(C(F)(F)F)c1 [Example 14, [2-(5-Cyano-2-{5-[3-isopropylcarbamoyl-5-methyl-2-oxo-1-(3-trifluoromethyl-phenyl)-2,3-dihydro-1H-imidazol-4-yl]-pyrazol-1-yl}-phenyl)-ethyl]-trimethyl-ammonium benzene sulphonate] | < 1 |
| Cc1c(-c2ccnn2-c2ccc(C#N)cc2CC[N+](C)(C)C)n(C(=O)NC2CC2)c(=O)n1-c1cccc(C(F)(F)F)c1 [Example 12, [2-(5-Cyano-2-{5-[3-cyclopropylcarbamoyl-5-methyl-2-oxo-1-(3-trifluoromethyl-phenyl)-2,3-dihydro-1H-imidazol-4-yl]-pyrazol-1-yl}-phenyl)-ethyl]-trimethyl-ammonium benzene sulphonate] | < 1 |
| Cc1c(-c2ccnn2-c2ccc(C#N)cc2CC[N+](C)(C)C)n(C(=O)NC2CCCCC2)c(=O)n1-c1cccc(C(F)(F)F)c1 [Example 11, [2-(5-Cyano-2-{5-[3-cyclohexylcarbamoyl-5-methyl-2-oxo-1-(3-trifluoromethyl-phenyl)-2,3-dihydro-1H-imidazol-4-yl]-pyrazol-1-yl}-phenyl)-ethyl]-trimethyl-ammonium benzene sulphonate] | < 1 |
| Cn1c(-c2ccnn2-c2ccc(C#N)cc2CC[N+](C)(C)C)c(C(=O)NC2CCCCC2)c(=O)n1-c1cccc(C(F)(F)F)c1 [Example 17, (2-{5-Cyano-2-[4′-cyclohexylcarbamoyl-2′-methyl-5′-oxo-1′-(3-trifluoromethyl-phenyl)-2′,5′-dihydro-1′H-[3,3′]bipyrazolyl-2-yl]-phenyl}-ethyl)-trimethyl-ammonium benzene sulfonate] | < 1 |
| CCNC(=O)n1c(-c2ccnn2-c2ccc(C#N)cc2CC[N+](C)(C)C)c(C)n(-c2cccc(C(F)(F)F)c2)c1=O [Example 13, [2-(5-Cyano-2-{5-[3-ethylcarbamoyl-5-methyl-2-oxo-1-(3-trifluoromethyl-phenyl)-2,3-dihydro-1H-imidazol-4-yl]-pyrazol-1-yl}-phenyl)-ethyl]-trimethyl-ammonium benzene sulphonate] | < 1 |
| Cn1c(-c2ccnn2-c2ccc(C#N)cc2CC[N+](C)(C)Cc2ccccc2)c(C(=O)NC2CCCC2)c(=O)n1-c1cccc(C(F)(F)F)c1 [Example 16, Benzyl-(2-{5-cyano-2-[4′-cyclopentylcarbamoyl-2′-methyl-5′-oxo-1′-(3-trifluoromethyl-phenyl)-2′,5′-dihydro-1′H-[3,3′]bipyrazolyl-2-yl]-phenyl}-ethyl)-dimethyl-ammonium bromide] | < 1 |
| Cn1c(-c2ccnn2-c2ccc(C#N)cc2CC[N+](C)(C)C)c(C(=O)NC2CCCC2)c(=O)n1-c1cccc(C(F)(F)F)c1 [Example 15, (2-{5-Cyano-2-[4′-cyclopentylcarbamoyl-2′-methyl-5′-oxo-1′-(3-trifluoromethyl-phenyl)-2′,5′-dihydro-1′H-[3,3′]bipyrazolyl-2-yl]-phenyl}-ethyl)-trimethyl-ammonium benzene sulfonate] | < 1 |
| Cc1c(-c2ccnn2-c2ccc(C#N)cc2CC[N+](C)(C)Cc2ccccc2)n(C(=O)NC2CCCC2)c(=O)n1-c1cccc(C(F)(F)F)c1 [Example 10, Benzyl-[2-(5-cyano-2-{5-[3-cyclopentylcarbamoyl-5-methyl-2-oxo-1-(3-trifluoromethyl-phenyl)-2,3-dihydro-1H-imidazol-4-yl]-pyrazol-1-yl}-phenyl)-ethyl]-dimethyl-ammonium bromide] | < 1 |

Results, then the compound that gave them:

| IC50 [nM] | SMILES |
| --- | --- |
| < 1 | Cc1c(-c2n(-c3ccc(C#N)cc3)cc[n+]2C)n(C(=O)NC2CCCC2)c(=O)n1-c1cccc(C(F)(F)F)c1 [Example 1, 1-(4-Cyanophenyl)-2-{3-(cyclopentylcarbamoyl)-5-methyl-2-oxo-1-[3-(trifluoromethyl)phenyl]-2,3-dihydro-1H-imidazol-4-yl}-3-methyl-1H-imidazol-3-ium benzene sulfonate] |
| < 1 | Cc1c(-c2n(-c3ccc(C#N)cc3)cc[n+]2C)n(C(=O)NC2CCC2)c(=O)n1-c1cccc(C(F)(F)F)c1 [Example 3, 1-(4-Cyanophenyl)-2-{3-(cyclobutylcarbamoyl)-5-methyl-2-oxo-1-[3-(trifluoromethyl)phenyl]-2,3-dihydro-1H-imidazol-4-yl}-3-methyl-1H-imidazol-3-ium benzene sulfonate] |
| < 1 | Cc1c(-c2ccnn2-c2ccc(C#N)cc2CC[N+](C)(C)C)n(C(=O)NC2CCCC2)c(=O)n1-c1cccc(C(F)(F)F)c1 [Example 9, [2-(5-Cyano-2-{5-[3-cyclopentylcarbamoyl-5-methyl-2-oxo-1-(3-trifluoromethyl-phenyl)-2,3-dihydro-1H-imidazol-4-yl]-pyrazol-1-yl}-phenyl)-ethyl]-trimethyl-ammonium benzene sulfonate] |
| < 1 | Cn1c(-c2n(-c3ccc(C#N)cc3)cc[n+]2C)c(C(=O)NC2CCCC2)c(=O)n1-c1cccc(C(F)(F)F)c1 [Example 7, 3-(4-Cyano-phenyl)-2-[4-cyclopentylcarbamoyl-2-methyl-5-oxo-1-(3-trifluoromethyl-phenyl)-2,5-dihydro-1H-pyrazol-3-yl]-1-methyl-3H-imidazol-1-ium benzenesulfonate] |
| < 1 | Cc1c(-c2n(-c3ccc(C#N)cc3)nc[n+]2C)n(C(=O)NC2CCCC2)c(=O)n1-c1cccc(C(F)(F)F)c1 [Example 6, 1-(4-Cyano-phenyl)-5-[3-cyclopentylcarbamoyl-5-methyl-2-oxo-1-(3-trifluoromethyl-phenyl)-2,3-dihydro-1H-imidazol-4-yl]-4-methyl-1H-[1,2,4]triazol-4-ium benzene sulfonate] |
| < 1 | Cn1c(-c2n(-c3ccc(C#N)cc3)nc[n+]2C)c(C(=O)NC2CCCC2)c(=O)n1-c1cccc(C(F)(F)F)c1 [Example 8, 1-(4-cyano-phenyl)-5-[4-cyclopentylcarbamoyl-2-methyl-5-oxo-1-(3-trifluoromethyl-phenyl)-2,5-dihydro-1H-pyrazol-3-yl]-4-methyl-1H-[1,2,4]triazol-4-ium benzenesulfonate] |
| < 1 | Cc1c(-c2n(-c3ccc(C#N)cc3)cc[n+]2Cc2ccccc2)n(C(=O)NC2CCCC2)c(=O)n1-c1cccc(C(F)(F)F)c1 [Example 2, 1-(4-Cyanophenyl)-2-{3-(cyclopentylcarbamoyl)-5-methyl-2-oxo-1-[3-(trifluoromethyl)phenyl]-2,3-dihydro-1H-imidazol-4-yl}-3-benzyl-1H-imidazol-3-ium bromide] |
| 1 to 10 | Cc1c(-c2n(-c3ccc(C#N)cc3)cc[n+]2C)n(C(=O)NCc2ccc(S(C)(=O)=O)cc2)c(=O)n1-c1cccc(C(F)(F)F)c1 [Example 5, 1-(4-Cyanophenyl)-2-{3-(4-methanesulfonyl-benzylcarbamoyl)-5-methyl-2-oxo-1-[3-(trifluoromethyl)phenyl]-2,3-dihydro-1H-imidazol-4-yl}-3-methyl-1H-imidazol-3-ium benzene sulfonate] |
| < 1 | Cc1c(-c2n(-c3ccc(C#N)cc3)cc[n+]2C)n(C(=O)NC2CCN(C(=O)C(F)(F)F)CC2)c(=O)n1-c1cccc(C(F)(F)F)c1 [Example 4, 1-(4-Cyanophenyl)-2-{3-[1-(2,2,2-trifluoro-acetyl)-piperidin-4-ylcarbamoyl]-5-methyl-2-oxo-1-[3-(trifluoromethyl)phenyl]-2,3-dihydro-1H-imidazol-4-yl}-3-methyl-1H-imidazol-3-ium benzene sulfonate] |

Source: US9862706B2, “Compounds” (CHIESI FARMACEUTICI S.P.A., priority 2016, dated 2018)
